Test results from patent US20220017871A1, “UNDIFFERENTIATED STATE-MAINTAINING CULTURE MEDIUM FOR PLURIPOTENT STEM CELLS” (Kanto Kagaku Kabushiki Kaisha, priority 2018, published 2022).

Assays:
[1] = system: Human iPS cell line 253G1; assay: Confirmation of cell morphology by phase-contrast microscopy; format: cell-based; conditions: third day of culturing; additive in basal medium (albumin 1 g/100 mL; NAC 8.2 mg/100 mL); spindle = good condition, globular = bad
Experimental: (§1) Human iPS cell line 253G1 was washed with PBS, then treated with an equivalent mixture solution of TrypLE Select (ThermoScientific) and 0.5 mM EDTA at 37° C. for 5 minutes to be dispersed into single-cells, and collected.
The morphology of cells on the third day of culturing in the basal medium with no additive and in the albumin-added medium was observed by phase-contrast microscopy.
The morphology of cells on the third day of culturing in the control medium and in the N-acetyl-L-cysteine-added medium as a representative of 5 types of antioxidants was observed by phase-contrast microscopy.

[2] = system: Human iPS cell line 253G1; assay: Comparison of proliferating rate in media with each added component; format: cell-based; conditions: 7 days culture; NAC 8.2 mg and/or PVA 0.25 g per 100 mL basal medium; basal medium only = 1; n=3
Experimental: To 100 mL of the basal medium, either only 8.2 mg of N-acetyl-L-cysteine was added, only 0.25 g of polyvinyl alcohol was added, or 8.2 mg of N-acetyl-L-cysteine and 0.25 g of polyvinyl alcohol were added.
as §1
The culture was carried out in the basal medium with no additive prepared as a control, and in a medium to which only N-acetyl-L-cysteine was added, in a medium to which only polyvinyl alcohol was added, or in a medium to which N-acetyl-L-cysteine and polyvinyl alcohol were added (n=3).

[3] = system: iPS cells; assay: Measurement of intracellular ROS (DCFH-DA staining, flow cytometer); format: cell-based, human; conditions: versus medium with no additive (100%)
Experimental: In each of the basal medium with no additive and the albumin-added medium, cells were dispersed into single-cells, and after 1 hours, for each case, cells were fluorescently stained with DCFH-DA, and fluorescence intensity was measured using a flow cytometer.
Cells were cultured in the control media or in the medium to which the respective component had been added, then dispersed into single-cells. For each case, cells were fluorescently stained with DCFH-DA, and the fluorescence intensity was measured using a flow cytometer.

[4] = system: Human iPS cell line 253G1; assay: Confirming cell attachment (crystal violet staining); format: cell-based; conditions: 7 days culture; 0.25 g polymer or 1 g albumin per 100 mL basal medium; iMatrix-511 coated 6-well plate; n=3
Experimental: as §1
The culture was carried out in the basal medium with no additive and an albumin-added medium prepared as controls, and in a medium to which polyvinyl alcohol and in a medium to which polyvinylpyrrolidone was added (n=3).
Each of the cultured cell was stained with crystal violet and the adherence of the cells was confirmed under phase-contrast microscopy.

[5] = Example 1, antioxidant added to 100 mL basal medium (NAC 163 mg, GSH 307 mg)

Molecule | cell morphology [1] | increase in relative proliferating rate [2] | decrease in intracellular ROS level [3, 5] | decrease in intracellular ROS level ([3]; Comparative Example 1, 1 g albumin per 100 mL basal medium, 1 hour after dispersion into single cells) | adherence of cells to culture container [4]
CC(=O)N[C@@H](CS)C(=O)O [N-acetyl-L-cysteine] | spindle shape | approximately 1.4 fold | approximately 50% | – | –
N[C@@H](CCC(=O)N[C@@H](CS)C(=O)NCC(=O)O)C(=O)O [reduced glutathione] | – | – | approximately 50% | – | –
albumin | spindle shape | – | – | approximately 60% | stained cells were confirmed all over the culture container
